Data from PubChem BioAssay (NCI).
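In this assay, cells in 96-well plates receive the compound at five concentrations for 48 hours. Endpoints are linearly interpolated between the surrounding concentrations. At the TGI there is no net growth.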

Columns and labels:
Test in all cases: NCI anticancer screen, dose series, 48 h
A498 renal = tested on: A498 renal
ACHN renal = tested on: ACHN renal
CCRF-CEM leukemia = tested on: CCRF-CEM leukemia
DLD-1 colon = tested on: DLD-1 colon
DMS 114 small cell lung = tested on: DMS 114 small cell lung
EKVX NSCLC = tested on: EKVX NSCLC
HCC-2998 colon = tested on: HCC-2998 colon
HCT-116 colon = tested on: HCT-116 colon
HL-60(TB) leukemia = tested on: HL-60(TB) leukemia
HOP-62 NSCLC = tested on: HOP-62 NSCLC
HT29 colon = tested on: HT29 colon
K-562 leukemia = tested on: K-562 leukemia
KM12 colon = tested on: KM12 colon
LOX IMVI melanoma = tested on: LOX IMVI melanoma
LXFL 529 NSCLC = tested on: LXFL 529 NSCLC
M14 melanoma = tested on: M14 melanoma
M19-MEL melanoma = tested on: M19-MEL melanoma
MALME-3M melanoma = tested on: MALME-3M melanoma
MOLT-4 leukemia = tested on: MOLT-4 leukemia
NCI-H23 lung = tested on: NCI-H23 lung
NCI-H460 lung = tested on: NCI-H460 lung
NCI-H522 lung = tested on: NCI-H522 lung
OVCAR-3 ovarian = tested on: OVCAR-3 ovarian
OVCAR-4 ovarian = tested on: OVCAR-4 ovarian
OVCAR-5 ovarian = tested on: OVCAR-5 ovarian
RXF 393 renal = tested on: RXF 393 renal
RXF-631 renal = tested on: RXF-631 renal
SF-268 CNS = tested on: SF-268 CNS
SF-539 CNS = tested on: SF-539 CNS
SK-MEL-2 melanoma = tested on: SK-MEL-2 melanoma
SK-MEL-28 melanoma = tested on: SK-MEL-28 melanoma
SK-OV-3 ovarian = tested on: SK-OV-3 ovarian
SN12C renal = tested on: SN12C renal
SNB-19 CNS = tested on: SNB-19 CNS
SNB-75 CNS = tested on: SNB-75 CNS
SNB-78 CNS = tested on: SNB-78 CNS
SR leukemia = tested on: SR leukemia
TK-10 renal = tested on: TK-10 renal
U251 CNS = tested on: U251 CNS
UACC-257 melanoma = tested on: UACC-257 melanoma
UACC-62 melanoma = tested on: UACC-62 melanoma
UO-31 renal = tested on: UO-31 renal
XF 498 CNS = tested on: XF 498 CNS

Measured: TGI

O=S(O)c1cc(Cl)cc(Cl)c1OCc1ccccc1
> 100 µM: A498 renal | ACHN renal | CCRF-CEM leukemia | DLD-1 colon | DMS 114 small cell lung | EKVX NSCLC | HCC-2998 colon | HCT-116 colon | HL-60(TB) leukemia | HOP-62 NSCLC | HT29 colon | K-562 leukemia | KM12 colon | LOX IMVI melanoma | LXFL 529 NSCLC | M14 melanoma | M19-MEL melanoma | MALME-3M melanoma | MOLT-4 leukemia | NCI-H23 lung | NCI-H460 lung | NCI-H522 lung | OVCAR-3 ovarian | OVCAR-4 ovarian | OVCAR-5 ovarian | RXF 393 renal | RXF-631 renal | SF-268 CNS | SF-539 CNS | SK-MEL-2 melanoma | SK-MEL-28 melanoma | SK-OV-3 ovarian | SN12C renal | SNB-19 CNS | SNB-75 CNS | SNB-78 CNS | SR leukemia | TK-10 renal | U251 CNS | UACC-257 melanoma | UACC-62 melanoma | UO-31 renal | XF 498 CNS
